Test results from article PMC12567082, “Silver(I) Complexes Bearing S-Alkyl Thiosalicylic Acid Derivatives: DNA/BSA Binding and Antitumor Activity In Vitro and In Vivo” (Pharmaceutics, 2025).

Tests used:
[1] = test system: human breast cancer (MDA-MB-468); experiment: MTT assay MDA-MB-468; format: cell-based
Description: (§1) Mouse breast cancer (4T1), human breast cancer (MDA-MB-468), mouse colon cancer (CT26), human colon cancer (HCT-116), mouse lung cancer (LLC1), human lung cancer (A549), mouse mesenchymal stem cells (mMSC), and human fibroblast cell lines (MRC-5) were used in this study and were consistently cultured in complete Dulbecco’s Modified Eagle Medium (DMEM) (Sigma-Aldrich, St. Louis, MO, USA) in incubator (5% CO2) under standard conditions. Complete DMEM was Dulbecco’s Modified Eagle Medium supplemented with 10% fetal bovine serum (FBS), 1 mmol/L penicillin–streptomycin, 1 mmol/L mixed nonessential amino acids, and 2 mmol/L L-glutamine (Sigma-Aldrich, St. Louis, MO, USA). All cancer cell lines and MRC-5 cell line were obtained from American Type Culture Collection (ATCC, Manassas, VA, USA), but mMSC was manufactured by Gibco (Middlesex County, MA, USA).
(§2) In 96-well microplates, we seeded cancer and non-cancer cells, more exactly 5 × 10^3 cells per well in 100 μL of complete DMEM (Sigma-Aldrich, St. Louis, MO, USA). […] Tested concentration range for all metal-based substances was 3.9–500 μM. After incubation with MTT solution (5 mg/mL; pH 7.2) for 4 h, optical density was determined using Zenyth 3100 microplate multimode detector (Salzburg, Austria). All experiments were performed three times, each in triplicate, and the IC50 values as well as selectivity indexes (IC50 for mMSC or MRC-5/IC50 for mouse or human cancer cells) were calculated.

[2] = test system: 4T1 cells; experiment: Colony formation assay; format: cell-based, mouse; conditions: 0.5 µM, 14 days
Description: Cancer 4T1 cells were seeded in a six-well plate (500 cells per well) and incubated with C3 (0.5 µM) or DMEM only for 14 days. After fixation, the colonies were stained using crystal violet.

[3] = test system: 4T1 mammary tumors; experiment: Breast cancer development in vivo (orthotopic 4T1); design: species or system BALB/C female mice; conditions: five single doses every third day, after day 18
Description: (§3) Ethics Committee of the Faculty of Medical Sciences of the University of Kragujevac, Serbia, approved all experiments (01-5301/11). ARRIVE guidelines and EU Directive 2010/63/EU for animal experiments were followed. Experimental animals, BALB/C female mice (8–10 weeks old), were housed under standard conditions (temperature-controlled environment, a 12 h light–dark cycle, fed ad libitum, and observed daily) throughout whole duration of experiment. Animals were inoculated with 4T1 cells (3 × 10^4) into the fourth mammary fat pad as previously described. Animals were randomly assigned to experimental or control groups, and after palpable tumors were detected, the pharmacological treatments were started. Female BALB/C mice intraperitoneally received either C3 (3 mg/kg), C3 (6 mg/kg), CDDP (6 mg/kg), or vehicle in distilled water with 0.05% DMSO (Sigma-Aldrich, St. Louis, MO, USA) (untreated group) in five single doses every third day (8 animals per group). Using electronic calipers (Moore and Wright, Sheffield, UK), the sizes of primary 4T1 mammary tumors were morphometrically evaluated. On the 30th day of experiment, animals were sacrificed, blood was collected (for determination of serum levels of ALT, AST, urea, and creatinine), and tissue sections (liver and kidney) were stained with H&E for further analysis. Liver or kidney sections were analyzed by two observers, and the injury levels were determined as previously reported.

[4] = test system: 4T1 cells; experiment: Cell cycle distribution; format: cell-based, mouse; conditions: 0.5 µM, 24 h
Description: After reaching optimal confluency, 4T1 cells were allowed to grow in the presence of 0.5 µM of C3 or DMEM only (control 4T1 cells) for next 24 h. According to manufacturer’s recommendation, cells were stained with Vybrant® DyeCycle^TM Ruby stain (Thermo Fisher Scientific, Waltham, MA, USA) in order to perform cell cycle analysis. The analysis was carried out on FACSCalibur Flow Cytometer (BD Biosciences, San Jose, CA, USA), and data were analyzed using FlowJo software (version 10.7.2; Tree Star Inc. Ashland, OR, USA).

[5] = test system: mouse lung cancer (LLC1); experiment: MTT assay LLC1; format: cell-based
Description: as §1, §2

[6] = test system: 4T1 cells; experiment: Analysis of cell death (Annexin V/PI) in 4T1; format: cell-based, mouse; conditions: 0.5 µM, 24 h, vs untreated
Description: 4T1 cells were treated with 0.5 µM of C3 or grown in DMEM only (control 4T1 cells) for 24 h and stained with Annexin-V-FITC and propidium iodide (PI) (BD Pharmingen, San Diego, CA, USA) as previously described. Quantification of cellular death was measured using FACSCalibur Flow Cytometer (BD Biosciences, San Jose, CA, USA) and FlowJo software (version 10.7.2; Tree Star Inc. Ashland, OR, USA).

[7] = biological target: T1, BSA (Bos taurus, UniProt P02769); experiment: BSA tryptophan fluorescence quenching; format: binding, bovine
T1 construct: purchased Sigma-Aldrich
T1 sequence (P02769 25-607): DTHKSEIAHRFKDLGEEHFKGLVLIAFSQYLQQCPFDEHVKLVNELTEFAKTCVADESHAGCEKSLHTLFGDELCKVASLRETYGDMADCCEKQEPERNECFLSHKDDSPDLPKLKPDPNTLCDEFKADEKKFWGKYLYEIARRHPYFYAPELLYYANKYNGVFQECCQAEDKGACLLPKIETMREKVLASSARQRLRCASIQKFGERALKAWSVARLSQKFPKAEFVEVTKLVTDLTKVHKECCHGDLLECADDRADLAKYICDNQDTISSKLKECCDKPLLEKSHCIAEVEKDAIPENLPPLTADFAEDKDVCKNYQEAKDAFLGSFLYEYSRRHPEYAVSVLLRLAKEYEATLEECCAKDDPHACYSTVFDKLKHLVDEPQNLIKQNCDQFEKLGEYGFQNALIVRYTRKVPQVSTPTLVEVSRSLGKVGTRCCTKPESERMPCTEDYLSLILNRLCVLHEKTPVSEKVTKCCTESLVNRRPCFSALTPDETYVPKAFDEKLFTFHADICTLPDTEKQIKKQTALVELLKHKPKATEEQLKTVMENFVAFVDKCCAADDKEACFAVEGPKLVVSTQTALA
Description: The protein binding study was carried out using tryptophan fluorescence quenching experiments with BSA. […] Fluorescence emission spectra were recorded between 300 and 500 nm, with excitation at 295 nm.
The quenching constant Ksv was determined based on the Stern–Volmer relationship, as described by Equation (3):I0/I = 1 + kqτ0[Q] = 1 + Ksv[Q](3)
In this equation, I0 and I refer to the fluorescence intensities of BSA measured without and with the quencher (complex), τ0 represents the average fluorescence lifetime of free BSA (∼10^−8 s), and [Q] indicates the quencher concentration.
Parameters such as association binding constant (K) and the number of binding sites per albumin (n) were obtained from Scatchard Equation (4):(ΔI/I0)/[Q] = nK − KΔI/I0(4)
To minimize inner filter, both intensities of fluorescence originating from excitation and emission light absorption and re-absorption were corrected by employing Equation (5); Icor and Iobs are the corrected and observed fluorescence intensities, respectively, and Aex and Aem represent the absorbance of the metal complex at the excitation and emission wavelengths, respectively.Icor = Iobs · […]^(Aex + Aem)/2(5)

[8] = test system: BALB/C female mice; experiment: In vivo toxicity (serum biochemistry, liver and kidney histology); conditions: day 30
Description: as §3

Question: Which IC50 ([1]; MDA-MB-468, 24 h) does the source give for `CCCSc1ccccc1C(=O)[O][Ag].CCCSc1ccccc1C(=O)[O][Ag]` [C3, [Ag2(S-propyl-thiosal)2]] here?
Answer: The IC50 was 15.5 ± 1.21 µM.

Question: And the “Selectivity Index (IC50 mMSC or MRC-5/ IC50 Cancer Cell)” value (from here on “Selectivity Index”) ([1]; MDA-MB-468, 24 h)?
Answer: Its value is 2.46.

Question: What about the IC50 ([1]; MDA-MB-468, 48 h) of the same compound?
Answer: Its IC50 is 8.76 ± 1.24 µM.

Question: And the “Selectivity Index” value ([1]; MDA-MB-468, 48 h)?
Answer: Its value is 4.95.

Question: And the 4T1 colony formation [2]?
Answer: The 4T1 colony formation was “almost total inhibition”.

Question: And the “tumor growth compared to the untreated group” value ([3]; 3 mg/kg i.p.)?
Answer: The value was “significantly slower”.

Question: And the “tumor growth compared to the untreated group” value ([3]; 6 mg/kg i.p.)?
Answer: Its value is “significantly slower”.

Question: And the “percentage of 4T1 cells in G0/G1 phase” value [4]?
Answer: The value was “significantly increased”.

Question: And the “percentage of 4T1 cells in S phase” value [4]?
Answer: Its value is “decreased”.

Question: What about the IC50 ([5]; LLC1, 24 h) of the same compound?
Answer: Its IC50 is 41.6 ± 1.27 µM.

Question: And the IC50 ([5]; LLC1, 48 h)?
Answer: Its IC50 is 20.3 ± 1.18 µM.

Question: And the “Selectivity Index” value ([5]; LLC1, 48 h)?
Answer: The value was 0.21.

Question: What about the “percentage of early apoptotic cells” value [6] of the same compound?
Answer: The value was “No difference”.

Question: What about the “percentage of late apoptotic 4T1 cells (AnnV+/PI+)” value [6] of the same compound?
Answer: Its value is “increased”.

Question: And the “kq (quenching rate constant)” value ([7]; BSA 2 µM)?
Answer: Its value is “(9.6 ± 0.1) × 10^12 M^−1 s^−1”.

Question: What about the “Ksv (Stern–Volmer constant)” value ([7]; BSA 2 µM, λex 295 nm) of the same compound?
Answer: Its value is “(9.6 ± 0.1) × 10^4 M^−1”.

Question: What about the “K (binding constant)” value ([7]; Scatchard equation) of the same compound?
Answer: The value was “(1.1 ± 0.1) × 10^5 M^−1”.

Question: And the “n (number of binding sites)” value ([7]; Scatchard equation)?
Answer: Its value is 1.1.

Question: And the “kidney injury scores compared to CDDP-treated animals” value ([8]; C3 3 and 6 mg/kg vs CDDP 6 mg/kg)?
Answer: The value was “significantly lower”.

Question: And the “liver injury histological score (Knodel score) vs untreated animals” value ([8]; C3 3 and 6 mg/kg, H&E)?
Answer: The value was “did not reveal a significant difference”.
